Test results from patent US9012190B2, “Use of thiamine and nicotine adenine dinucleotide for butanol production” (Butamax Advanced Biofuels LLC, priority 2011, dated 2015).

How the values were obtained:
[1] = test system: isobutanol producing NYLA84 strain; assay: Shake flask fermentation with addition of thiamine or yeast extract (Example 1); format: cell-based, Saccharomyces cerevisiae
Method: The medium contained the following ingredients per L of water: 6.7 g Yeast Nitrogen Base (YNB) w/o amino acids (Difco 0919-15-3); 2.8 g Yeast Synthetic Drop-out Medium Supplement Without histidine, leucine, tryptophan, and uracil (Sigma Y2001); 20 mL of 1% (w/v) L-leucine; 4 mL of 1% (w/v) L-tryptophan; 5 g ethanol; 3 g glucose; and 1.0 mL of the ergosterol and Tween 80. In order to obtain 10 mL ergosterol and Tween 80 solution, 100 mg of ergosterol were dissolved in 5 mL 100% EtOH and 5 mL Tween 80 and then heated until sterile and dissolved (10 min at 70° C.).
In the shake flask experiments described, the following were added to 125 mL shake flasks: 16 mL of the culture broth; 2 mL of the 1 M MES buffer; and 2 mL of the addition (H2O, YE, TH). The following additions were prepared: yeast extract (YE, final concentration 10 g/L); thiamine (TH, final concentration 6, 60, and 100 mg/L).
In order to provide the culture broth, seed cultures were started in 125 mL shake flasks with air permeable lids (10 mL medium inoculated with 1 mL inoculum from a frozen vial). […] The OD was measured at λ=600 nm (Spectrophotometer from Thermo Electron Corporation Heλios Alpha, USA). […] Ergosterol and Tween 80 was added to the medium to a final concentration of 1 mL/L. Seed (10 mL) was inoculated into 2 L shake flask with 135 mL of the medium. Separately, 2 mL of the H2O, YE, TH additions were added to new 125 ml shake flasks. Into the 2 L shake flask, 16 mL of 1 M MES buffer was added and 5.3 mL of 50% (w/w) glucose solution. Eighteen (18) mL of this culture broth was distributed into the 125 mL shake flasks with prepared additions. The aerobic shake flasks with air permeable lid were incubated at 30° C. and 260 rpm. The anaerobic shake flasks were treated in anaerobic hood and incubated at 30° C. and 260 rpm. The anaerobic shake flasks were sampled in the anaerobic hood.
The effect of thiamine on isobutanol production was analyzed using shake flask fermentation. Shake flask fermentations were performed under both aerobic and anaerobic conditions in the presence of water (negative control), yeast extract (YE, positive control, final concentration 10 g/L), or thiamine (TH, final concentration 100 mg/L) with isobutanol producing NYLA84 strain. The final biomass (X), isobutanol concentrations, and specific isobutanol production rates (qP) were measured and are shown in FIG. 1.

[2] = test system: isobutanol producing NYLA84 strain; assay: Shake flask cultivations with nicotinic acid, vitamin solution or YEP (Example 6); format: cell-based, Saccharomyces cerevisiae
Method: (§1) The aerobic shake flasks with air permeable lid were incubated at 30° C. and 260 rpm.

[3] = test system: BP1063 isobutanol producing strain; settings: bioreactor; NA concentrations of as low as 5 mg/L; vs water control
Method: One liter (1 L) of inoculum medium contained: 6.7 g, Yeast Nitrogen Base w/o amino acids (Difco 0919-15-3); 2.8 g, Yeast Synthetic Drop-out Medium Supplement Without histidine, leucine, tryptophan and uracil (Sigma Y2001); 20 mL of 1% (w/v) L-leucine; 4 mL of 1% (w/v) L-tryptophan; 1 mL of ergosterol and Tween 80 solution; 3 g of ethanol; 3 g of glucose. Preparation of ergosterol and Tween 80 solution: for 10 mL of the solution, 100 mg of ergosterol was dissolve in 5 mL 100% EtOH and 5 mL Tween 80. It was heated at 70° C. for 10 minutes.
A 125 mL shake flask was inoculated directly from a frozen vial by pipetting the whole vial culture (approx. 1 ml) into 10 mL of the inoculum medium. The flask was incubated at 260 rpm and 30° C. The strain was grown overnight until OD about 1.0. At this point four 2 L baffled shake flasks with 90 mL of the inoculum medium were inoculated from the overnight culture. […]
OD at λ=600 nm was determined in a HEλIOS a spectrophotometer (Thermo Electron Corporation, USA). […] Glucose and fermentation by-product analysis were determined by HPLC utilizing a Shodex® SH-1011 column with a Shodex® SH-G guard column (both available from Waters Corporation, Milford, Mass.), with diode array (DA) and refractive index (RI) detector. […]
Isobutanol was measured in oleyl alcohol, culture broth, and off-gas samples by GC method, HPLC method, and mass-spectrometry, respectively.

[4] = test system: isobutanol producing NYLA84 strain; assay: Shake flask cultivations with nicotinic acid, vitamin solution or YEP (Example 8); format: cell-based, Saccharomyces cerevisiae
Method: as §1

[5] = test system: isobutanol producing NYLA 84 strain; assay: Aerobic shake flask range finding with nicotinic acid (Example 7); format: cell-based, Saccharomyces cerevisiae; settings: NA concentrations as low as 6 mg/L, all measurement points (2.00 h, 18.75 h, 24.5 h)
Method: The strain used in this Example was the isobutanol producing NYLA 84 strain, described elsewhere herein. Vitamin stock solution contained biotin, 50 mg/L; Ca-panthotenate, 1 g/L; nicotinic acid, 1 g/L; myo-inositol, 25 g/l; thiamine.HCl, 1 g/L; pyridoxine hydrochloride, 1 g/L; p-aminobenzoic acid, 0.2 g/L; riboflavin, 0.2 g/L; and folic acid, 2 mg/L. One liter (1 L) of ergosterol and Tween 80 stock solution contains 10 g of ergosterol dissolved in 500 mL 100% ethanol solution and 500 mL Tween 80.
Glucose and fermentation by-product analysis were determined by a Waters HPLC utilizing a Bio-Rad Aminex HPX-87H column with diode array (DA) operated at 210 nm and a refractive index (RI) detector at 50° C.
Several seed cultures inoculated each with a 1 mL glycerol frozen stock vial were grown in 10 mL base medium for 24 h. At the start of the range finding experiment, seed cultures were pooled and 16 mL each of the pooled seed culture were distributed into 125 mL shake flasks, 2 mL of 1 M MES buffer added, and additionally 2 mL of (a) bidestilled water, (b-d) nicotinic acid (NA) stock solutions with 60 mg/L, 600 mg/L and 1000 mg/L of NA dissolved in bidestilled water, respectively, and (e) YE stock solution with 200 g/l YE. The aerobic shake flasks with air permeable lid were incubated at 30° C. and 260 rpm. Initial OD at λ=600 nm in the cultures was 0.764.

[6] = aerobic shake flasks, thiamine 100 mg/L
[7] = aerobic (25.8 h) and anaerobic (24.2 h) shake flasks
[8] = isobutanol, glucose consumption, biomass
[9] = aerobic and anaerobic shake flasks, sampled after 6.3 and 20.8 h

SMILES: Cc1ncc(C[n+]2csc(CCO)c2C)c(N)n1 [thiamine]
- initial qP compared with yeast extract ([1]; aerobic flasks, thiamine 100 mg/L vs yeast extract 10 g/L): about the same as achieved with yeast extract
- initial qP higher than the control ([1]; aerobic flasks, thiamine 100 mg/L, vs water control): 75%
- initial qP (specific isobutanol production rate) ([1]; aerobic flasks, thiamine final concentration 100 mg/L, first 24 fermentation hours): 0.14 g/g/h
- accumulation of keto-isovaleric acid in control shake flasks compared to flasks with the addition ([1]; aerobic shake flasks): several times higher
- isobutanol titers at the three concentrations ([1]; aerobic shake flasks, final concentrations of 6, 60, and 100 mg/L thiamine): similar
- final biomass concentration compared to the control [1, 6]: higher
- titers of isobutanol compared to the control [1, 6]: higher

SMILES: O=C(O)c1cccnc1 [NA, nicotinic acid]
- biomass formation compared to the negative control [2, 7]: increased
- consumption of glucose compared to the negative control [2, 7]: increased
- isobutanol production compared to the negative control [2, 7]: increased
- increase under anaerobic versus aerobic conditions [2, 8]: significantly more pronounced under anaerobic than under aerobic conditions
- final isobutanol titers in the aqueous phase [3]: improved
- biomass formation compared to the negative control [4, 9]: increased
- consumption of glucose compared to the negative control [4, 9]: increased
- isobutanol production compared to the negative control [4, 9]: increased
- increase under anaerobic versus aerobic conditions [4, 8]: significantly more pronounced under anaerobic than under aerobic conditions
- biomass titers compared to control culture without NA [5]: significantly increased
- isobutanol titers compared to control culture without NA [5]: significantly increased
